Laboratory results from patent publication US20030088061A1, “Materials and methods to modulate ligand binding/enzymatic activity of alpha/beta proteins containing an allosteric regulatory site” (priority 2000, published 2003).
Like-named read-outs stand apart in the source and are kept apart here.

Molecular target: T1, αEβ7 (Homo sapiens, UniProt P26010+P38570)
T1 construct: DNA encoding full-length alpha E was identified as follows; expressed in transfected cells; host or cells: JY cells, plasmid pMHneo/aE
T1 sequence (P38570 19-1179): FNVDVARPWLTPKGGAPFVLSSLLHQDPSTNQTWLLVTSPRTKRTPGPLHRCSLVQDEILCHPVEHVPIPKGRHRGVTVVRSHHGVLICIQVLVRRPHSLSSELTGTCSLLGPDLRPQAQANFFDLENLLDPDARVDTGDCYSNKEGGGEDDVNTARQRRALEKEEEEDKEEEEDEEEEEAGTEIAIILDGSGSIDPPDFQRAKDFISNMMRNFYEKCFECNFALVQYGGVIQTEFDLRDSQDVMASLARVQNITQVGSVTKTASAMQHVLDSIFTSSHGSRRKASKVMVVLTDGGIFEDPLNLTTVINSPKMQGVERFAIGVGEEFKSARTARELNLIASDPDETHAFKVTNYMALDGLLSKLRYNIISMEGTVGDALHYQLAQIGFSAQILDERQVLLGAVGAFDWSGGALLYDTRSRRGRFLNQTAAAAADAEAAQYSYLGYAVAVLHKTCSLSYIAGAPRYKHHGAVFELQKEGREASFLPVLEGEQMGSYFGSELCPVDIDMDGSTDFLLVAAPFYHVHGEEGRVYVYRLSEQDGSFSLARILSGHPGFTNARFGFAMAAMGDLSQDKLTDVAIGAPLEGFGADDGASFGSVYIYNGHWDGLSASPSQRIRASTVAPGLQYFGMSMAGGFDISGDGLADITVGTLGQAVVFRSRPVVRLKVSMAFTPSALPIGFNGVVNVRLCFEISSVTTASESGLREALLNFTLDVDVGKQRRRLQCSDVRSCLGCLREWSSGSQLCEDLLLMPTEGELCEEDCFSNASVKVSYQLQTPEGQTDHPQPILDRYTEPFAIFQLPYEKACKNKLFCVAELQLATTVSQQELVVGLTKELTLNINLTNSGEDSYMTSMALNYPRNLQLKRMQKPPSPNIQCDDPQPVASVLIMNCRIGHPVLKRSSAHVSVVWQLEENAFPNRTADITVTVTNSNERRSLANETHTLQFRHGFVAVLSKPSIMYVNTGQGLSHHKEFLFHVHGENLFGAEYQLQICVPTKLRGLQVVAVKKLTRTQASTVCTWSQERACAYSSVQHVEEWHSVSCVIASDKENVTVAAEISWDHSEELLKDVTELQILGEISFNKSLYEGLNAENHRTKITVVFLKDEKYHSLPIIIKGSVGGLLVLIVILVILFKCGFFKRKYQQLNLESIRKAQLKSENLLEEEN
T1 sequence (P26010 20-798 partner): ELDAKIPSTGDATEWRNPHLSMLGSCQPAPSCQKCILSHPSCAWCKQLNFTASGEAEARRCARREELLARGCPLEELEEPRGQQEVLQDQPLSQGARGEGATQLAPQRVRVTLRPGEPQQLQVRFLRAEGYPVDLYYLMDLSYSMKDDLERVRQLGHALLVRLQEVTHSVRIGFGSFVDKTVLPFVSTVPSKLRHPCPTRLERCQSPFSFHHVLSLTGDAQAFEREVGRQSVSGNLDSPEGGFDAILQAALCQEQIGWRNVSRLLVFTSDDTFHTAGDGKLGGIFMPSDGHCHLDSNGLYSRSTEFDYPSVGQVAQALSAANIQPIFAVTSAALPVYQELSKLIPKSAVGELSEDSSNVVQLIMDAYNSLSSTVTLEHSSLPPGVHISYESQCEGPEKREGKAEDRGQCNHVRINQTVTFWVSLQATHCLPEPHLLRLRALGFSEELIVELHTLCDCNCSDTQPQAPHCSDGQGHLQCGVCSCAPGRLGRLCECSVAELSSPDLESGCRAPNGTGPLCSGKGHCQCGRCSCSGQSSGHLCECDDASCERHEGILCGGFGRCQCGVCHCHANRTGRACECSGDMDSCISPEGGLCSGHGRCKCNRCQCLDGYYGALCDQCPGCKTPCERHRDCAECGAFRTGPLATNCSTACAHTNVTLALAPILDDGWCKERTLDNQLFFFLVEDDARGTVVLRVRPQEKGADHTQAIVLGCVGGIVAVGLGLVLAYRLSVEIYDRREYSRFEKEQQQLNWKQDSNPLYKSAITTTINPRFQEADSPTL
Experiment: JY/aE+ cell adhesion to E-cadherin/Ig
Format: cell-based
Experimental: Adhesion media (350 μl) (RPMI 1640 containing penicillin and streptomycin, L-glutamine, NaPy, and 5% FBS) was aliquotted into each well in rows A, C, E, G of a deepwell 96-well titer plate, 2.0 ml capacity (Beckman Instruments, Inc., Fullerton, Calif.) in columns 1-11. All compounds to be screened were dissolved in DMSO to a final concentration of 10 mM. Compounds were stored at −20° C., and thawed on the day of use in a 37° C. incubator. Each compound (2.1 μl) was pipetted into a single well in columns 3-11, rows A, C, E, and G in the deepwell titer plate. To wells not containing compound (A1 & A2, C1 & C2, E1 & E2, G1 & G2), 2.1 μl DMSO was added. An anti-β7 monoclonal antibody, FIB504 (ATCC, Rockville, Md.), which blocks αEβ7 binding activity, was added to wells C2 and G2 at a concentration of 7.5 μg/ml. Each deepwell titer plate was covered to prevent dessication and stored in a 37° C. incubator until ready for use.
Adhesion assays were performed in 96-well Immunlon 4 plates (Dynex Technologies, Inc., Chantilly, Va.) as follows. Each well was coated with 50 μl E-cadherin/Ig (3.0 μg/ml) in D-PBS. Control wells were coated with capture antibody FIB504, to quantitate 100% input cell binding, or coating buffer alone to determine background binding. Following an overnight incubation at 4° C., the plates were washed three times with 200 μl/well D-PBS and blocked with 1% BSA in D-PBS for at least 1 hour. The BSA solution was removed and 100 μl of adhesion media (RPMI 1640 containing penicillin and stretomycin, L-glutamine, sodium pyruvate, 0.1% BSA, and 60 ng/ml PMA), was added to rows B through G, columns 1 through 11.
At this point, 100 μl adhesion media containing a test compound at a concentration of 60 μM, was transferred from the deepwell 96-well titer plate, in triplicate, to the E-cadherin/Ig coated adhesion plate. The outer rows were filled with 300 μl of D-PBS. These plates were transferred to a humidified 37° C. incubator with an atmosphere of 5% CO2.
The adhesion assay was initiated by addition of 100 μl of the JY/aE^+ cell suspension to each well of the E-cadherin-coated plate. The final volume in each well was 300 μl adhesion media containing […], PMA (final concentration 20 ng/ml), and the test compound (final concentration 20 μM). The plates were incubated at 37° C. for 30 min. Each compound was tested in triplicate.
Adherent cells were fixed by the addition of 50 μl of a 14% glutaraldehyde solution in D-PBS. Plates were washed with water, stained with 100 μl/well 0.5% crystal violet (Sigma Corp., St. Louis, Mo.) solution for 5 min. Three hundred microliters/well of 70% ethanol was added, and adherent cells were quantitated by determining absorbance at 570 nm. Percentage of cell binding was determined by using the mean values for each triplicate in a given assay in the following formula. [formula]
During the initial screening of test compounds, each chemical entity was tested in cell-based adhesion assays at a fixed concentration of 20 μM. Those compounds that blocked JY/αEβ7-dependent adhesion to E-cadherin/Ig by 50% or more were subsequently retested at multiple concentrations to determine the inhibitory concentration at which cell binding is reduced by 50%, i.e., the IC50 value.
For each IC50 assay, 50 μl of the ligand diluted in 50 mM bicarbonate buffer (pH 9.6) was dispensed per well of an Immulon-4 plate. A single plate was used to test two different ligands, each in triplicate, The coating concentration for the various ligands was as follows: VCAM-1/Ig at 2.0 μg/ml; ICAM-1/Ig at 5.0 μg/ml; vitronectin at 0.5 μg/ml; MAdCAM-1/Ig at 3.0 μg/ml, and iC3b at 5.0 μg/ml. The capture antibody, e.g. anti-CD18 monoclonal antibody TS1/22, was added at a concentration of 10 μg/ml in 50 μl/well. Ligand-coated plates were covered and stored overnight at 4° C. The following day, the contents of each well was decanted, and each plate was washed three times with 200 μl/well D-PBS. […]

[1] = PMA-treated JY cells, read-out: E-cadher αEβ7 IC50
[2] = reproducible inhibitory activity on re-analysis, read-out: IC50, inhibition of JY/aE+ binding to E-cadherin

`O=C(NCc1cccnc1)c1ccccc1C(=O)Nc1sc2ccccc2c1Cl` [Cmpd K] was tested, and the IC50 [1] was 3 µM and the IC50 [2] was < 10 µM.
In the case of `CC(CN(C)C)NCc1ccccc1Sc1ccc(C(C)(C)C)cc1` (centres unmarked) [Cmpd Z], the IC50 [1] is reported as 3 µM and the IC50 [2] is reported as < 10 µM.
With `CC(=O)Oc1ccccc1C(=O)n1c(-c2ccccc2)cc2ccccc21` [Cmpd D] the IC50 [1] was 3 µM and the IC50 [2] was < 10 µM.
`Nc1ccc(Sc2ccc(NC(=O)CCc3ccccc3)cc2)c(Cl)c1` [Cmpd W] was tested, and the IC50 [1] was 5 µM and the IC50 [2] was < 10 µM.
